Laboratory results as given in US20050267085A1, “Combined therapy for the treatment of Parkinson's disease” (UNIVERSITE LAVAL, priority 2004, published 2005).

Assays:
[1] = test system: hemiparkinsonian MPTP-monkeys; experiment: Ipsilateral and contralateral circling behavior in hemiparkinsonian MPTP-monkeys; assay type: in vivo, macaca fasicularis
Procedure: (§1) Six hemiparkinsonian ovariectomized female macaca fasicularis monkeys weighing 2.8-6.5 kg were used in this experiment. During induction of the parkinsonian syndrome, they received 1-methyl-4-phenyl-1,2,3,6-tetrahydropyridine (MPTP, 3 mg) via an Alzet pump during a period of 1-2 weeks according to the monkey. The procedure consisted of putting the pump in the left substantia nigra and the MPTP infused lesioned the dopaminergic cells. The animals were used at least 5 months after the induction of their hemiparkinsonian state at which time they had stabilized. For a further experimentation, 6 bilaterally-lesioned parkinsonian macaca fasicularis monkeys were used. The induction of the parkinsonian syndrome was performed according to the above-described methodology, except that the Alzet pump was installed so as to lesion dopaminergic cells of the substantia nigra in both brain hemispheres.
(§2) To determine the effect of levodopa, DHEA or combination thereof on parkinsonian monkeys, ipsilateral and contralateral circling was monitored in hemiparkinsonian monkeys while Parkinsonian score was determined in bilaterally-lesion parkinsonian monkeys. Hemiparkinsonian monkeys turn towards the ipsilateral side of the lesion (to the left) under basal conditions and upon dopaminergic stimulation this circling changes for the contralateral side (to the right). Parkinsonian score was determined in bilaterally-lesion parkinsonian monkeys according to the method known in the art. All received the same treatments and were their own controls. Monkeys were first treated with levodopa for priming until a stable antiparkinsonian behavior was observed. During the investigation of DHEA administered alone, priming of the monkeys was continued with administration of levodopa/benserazide (50/12.5 mg) given twice weekly. DHEA treatments were started on the third day after the last levodopa dose.
(§3) DHEA was administered at different doses (1, 5, and 15 mg/kg) by nasogastric gavage (n.g.) alone and in combination (DHEA: 1, 5, 10 and 15 mg/kg n.g.) with a s.c. T.L-Dopa. Threshold doses of levodopa, that is the minimal dose to obtain contralateral circling were sought for each of the MPTP-monkeys and varied from one monkey to another from 3 to 8 mg/kg (3, 4, 4.5, 5, 5, and 8 mg/kg). Higher doses of DHEA (25-100 mg/kg) alone or with T.L-Dopa were also tested in a similar paradigm.
Treatments were administered in the morning and each animal was recorded via a video camera system. Duration of locomotor activation lasted for 90 min for all hemiparkinsonian animals and treatments. […] Each treatment was repeated 2-3 times and averaged for each monkey.
Experimental data was compared using an ANOVA for repeated measures followed by post-hoc pair wise comparisons with Fisher's probability of least significant difference test (PLSD). A p<0.05 was required for the results to be considered statistically significant. Statistical comparison of square root transformation of the data was used to stabilize variance when required (D. C. Montgomery (1991) Third Edition, Design and analysis of experiments. ed. Whileys and Sons pp. 216).

[2] = test system: bilaterally-lesioned parkinsonian MPTP-monkeys; experiment: Parkinsonian score and duration of levodopa effect in bilaterally-lesioned parkinsonian MPTP-monkeys; assay type: in vivo, macaca fasicularis
Procedure: as §1, §2, §3
Experimental data was compared using an ANOVA for repeated measures followed by post-hoc pair wise comparisons with Fisher's probability of least significant difference test (PLSD). A p<0.05 was required for the results to be considered statistically significant. […]

[3] = threshold dose of levodopa alone
[4] = DHEA 1 mg/kg n.g. added to threshold dose s.c. T.L-Dopa, compared to saline or T.L-Dopa alone
[5] = DHEA 5, 10 and 15 mg/kg n.g. combined with T.L-Dopa, compared to saline

| Structure (SMILES) | contralateral circling [1, 3] | ipsilateral circling [1, 3] | overall ipsilateral-contralateral circling [1, 3] | Parkinsonian score [2, 4] | increase of duration of levodopa effect ([2]; DHEA 1 and 5 mg/kg with threshold dose of levodopa, versus levodopa alone) | Parkinsonian score [2, 5] | Parkinsonian score ([2]; DHEA alone at different doses, n.g.) | contralateral circling (mean/30 min) [1, 4] | contralateral circling (mean/30 min) [1, 5] | levodopa-induced locomotor activity ([1]; DHEA added to minimal threshold doses of levodopa) | contralateral circling (mean/30 min) ([1]; DHEA alone 1-15 mg/kg n.g., compared to saline treatment) | ipsilateral circling ([1]; DHEA alone or DHEA combined to T.L-Dopa, versus basal conditions or saline) | dose-response on circling behavior ([1]; DHEA alone or combined with levodopa) | Duration of the DHEA effect ([1]; DHEA alone, n.g.) [min] | effect on levodopa-induced change in ipsilateral, contralateral and ipsilateral-contralateral circling ([1]; optimal dose of DHEA for each monkey combined with threshold levodopa) |
| --- | --- | --- | --- | --- | --- | --- | --- | --- | --- | --- | --- | --- | --- | --- | --- |
| N[C@@H](Cc1ccc(O)c(O)c1)C(=O)O [Levodopa, L-3,4-dihydroxyphenylalanine] | increased | decreased | reducing | – | – | – | – | – | – | – | – | – | – | – | – |
| C[C@]12CC[C@H](O)CC1=CC[C@@H]1[C@@H]2CC[C@]2(C)C(=O)CC[C@@H]12 [DHEA, Dehydroepiandrosterone] | – | – | – | decreased | approximately 40% | reduced | reduce | significantly increased | significantly increased | potentiates | significantly and similarly increased | decreased | did not produce a significant dose-response | 90 | significantly potentiated |
